# Measured values taken from ChEMBL document CHEMBL1151393, “Biologically active pyrrolizidine alkaloids from the true forget-me-not, Myosotis scorpioides” (J Nat Prod, 1982).
# Key:
# Assay type in all cases: organism-based
# Settings in all cases: in vivo
# [1] = test system: Mus musculus; assay: Toxicity in BS1 mouse at 63 mg/kg, ip; parameters: dose 63 mg/kg, route intraperitoneal
# [2] = test system: Mus musculus; assay: Toxicity in BS1 mouse at 125 mg/kg, ip; parameters: dose 125 mg/kg, route intraperitoneal
# [3] = test system: Mus musculus; assay: Toxicity in BS1 mouse assessed as lethargy at 250 mg/kg, ip; parameters: dose 250 mg/kg, route intraperitoneal
# [4] = test system: Mus musculus; assay: Toxicity in BS1 mouse assessed as ataxia at 250 mg/kg, ip; parameters: dose 250 mg/kg, route intraperitoneal
# [5] = test system: Mus musculus; assay: Toxicity in BS1 mouse assessed as death at 500 mg/kg, ip within 4 mins; parameters: dose 500 mg/kg, route intraperitoneal
# [6] = test system: Mus musculus; assay: Toxicity in BS1 mouse assessed as occurrence of liver lesions at 250 mg/kg, ip; parameters: dose 250 mg/kg, route intraperitoneal
# [7] = test system: Mus musculus; assay: Toxicity in BS1 mouse assessed as lethargy, ataxia, gasping and clonic convulsion at 500 mg/kg, ip within 4 mins; parameters: dose 500 mg/kg, route intraperitoneal
SMILES,Activity [1],Activity [2],Activity [3],Activity [4],Activity [5],Activity [6],Activity [7]
C/C=C(\C)C(=O)O[C@@H](C)[C@](O)(C(=O)OCC1=CCN2CC[C@@H](OC(C)=O)[C@@H]12)C(C)C,Non-toxic,Non-toxic,Toxic,Toxic,Toxic,Non-toxic,Toxic
C/C=C(\C)C(=O)O[C@@H](C)[C@](O)(C(=O)OCC1=CCN2CC[C@@H](O)[C@@H]12)C(C)C [SCORPIOIDINE],Non-toxic,Non-toxic,Toxic,Toxic,Toxic,Non-toxic,Toxic
